In patent US20220288051A1, “METHODS FOR TREATING CANCER USING SERIAL ADMINISTRATION OF E3 UBIQUITIN LIGASE DEGRADERS” (Dana-Farber Cancer Institute, Inc., priority 2019, published 2022):
“Also recorded” adds a separate entry of the source.

Tests used:
MM.1S-Cas9+ cells = test: Genome-scale CRISPR/Cas9 gene editing (LOF) resistance screens; type: cell-based, human; conditions: for sgRNA enrichment in resistant cells, long-term screen: long-term treatment, NGS of sgRNAs; for sgRNA enrichment, extended degronimid treatment: Thal-SNS-032-resistant MM.1S cells, additional 2 weeks
Procedure: MM.1S cells transduced with lentiviral construct for SpCas9 were kindly provided from Quinlan Sievers (Ebert Lab, BWH/DFCI). MM.1S cells were also transduced with lentiviral construct for dCas9-VP64 (purchased from Addgene).
ii. Lentiviral transductions with sgRNA libraries: For the screen with the GECKOv2 sgRNA library, tumor cell transductions were performed in batches of 8×10^7 cells per sub-library for each replicate. Cells were incubated for 16 hrs in cell medium containing polybrene (2 μg/mL; Santa Cruz Biotechnology), 10 mM HEPES (pH 7.4) (Sigma-Aldrich) and viral prep (4 mL) diluted to achieve an MOI of 0.4. After the end of the incubation with the viral preps, cells were washed and incubated for an additional day. Transduced cells were cultured at an initial density of 1×10^6 cells/mL and were treated with puromycin (1 μg/mL) for up to 14 days immediately after transduction. After puromycin selection, MM.1S-Cas9^+ cells transduced with each GeCKOv2 sublibrary were plated at 60×10^6 cells per flask (T175, 100 mL) to enable coverage of ˜1000× and were sub-cultured at four to five-day intervals to prevent confluence. At each passage, cells were harvested, washed with PBS (Corning, N.Y.), pelleted (5000 rpm, 5 min, 4° C.) and frozen as cell pellets (−80° C.) for next generation sequencing, and also replated at 60×10^6 cells to maintain 1000× coverage.
For the genome-scale screens with the Brunello sgRNA library, tumor cell transductions were performed in batches of 5×10^7 cells per library for six replicates. Cells were incubated (18 h) in cell medium containing polybrene (5 μg/mL; Santa Cruz Biotechnology), 10 mM HEPES (pH 7.4) (Sigma-Aldrich) and viral prep (30 mL) diluted 1:1. Transduced cells were cultured at an initial density of 1×10^6 cells/mL and were treated with puromycin (1 μg/mL) for up to 5 days additional two days from transduction. After stable transduction, pooled MM.1S cells were plated at 40×10^6 cells per flask (T175, 100 mL) to enable coverage of 500× and were sub-cultured at three- to four day intervals to prevent confluence. At each passage, cells were harvested, washed with PBS (Corning), pelleted (5000 rpm, 5 min, 4° C.) and frozen as cell pellets (−80° C.) for next generation sequencing, and also replated at 40×10^6 cells (˜500× coverage).
iii. […] Following treatments, all cells were serially cultured without drug and allowed to regrow for as long as required to enable reseeding (60×10^6 cells per flask, 100 mL) and retreatment with individual drugs while maintaining ˜1000× coverage throughout. Concomitant with retreatment, remaining cells were frozen (−80° C.; 20% FBS/DMSO) for later analysis or assessed for drug resistance/sensitivity using CTG assays. Between treatments, and in order to maintain the health of cultures, dead cells were periodically removed using Ficoll centrifugation (1,500 rpm for 10-20 min). For all CRISPR drug treatment experiments, aliquots of MM.1S-Cas9+ cells transduced with the GeCKO(Sanjana et al., 2014; Shalem et al., 2014) or Brunello (Doench et al., 2016) sgRNA libraries were frozen immediately prior to experimentation to determine the baseline distribution of sgRNAs in the cell population.
For “long-term” treatment screens with Thal-SNS-032-, ARV-771- and MZ-1-resistant cells, we continuously treated MM.1S-Cas9+ cells (40×10^6, —500× coverage) transduced with the Brunello sgRNA library (4 weeks post-puromycin selection) with either each compound's (IC20) or vehicle control. Cells were serially passaged every 3-4 days to prevent confluence, each time replating at ˜500× coverage (100 mL) at the same time replenishing each compound or vehicle. Drug treatments were paused if cell numbers fell below 10×10^6 per flask, allowing cells to recover and regrow, and treatments were resumed at a lower concentration when cell numbers reached 40×10^6. At each passage, cells were assayed for drug sensitivity/resistance using CTG. […]

MM.1S Cas9+ cells = test: Dose-response assay of cells with individual sgRNA knock-outs, CTG; type: cell-based, human
Procedure: Non-targeting control sgRNAs and COPS7B sgRNAs were from GeCKOv2. Four sgRNAs were generated per each gene, except from COPS7B, for which 6 sgRNAs were available (Table S2). All sgRNAs were synthesized by CustomArray Inc (Bothell, Wash.). Cloning was performed according to the protocol published by Zhang et al. (media.addgene.org/cms/filer_public/4f/ab/4fabc269-56e2-4ba5-92bd-09dc89c1e862/zhang_lenticrisprv2_and_lentiguide_oligo_cloning_protocol_1.pdf) using a pHKO9 vector. Briefly, to clone the sgRNA guide sequence, plasmids were digested with BsmBI (New England Biolabs, Ipswich, Mass.) at 55° C. for 1 hour. Oligonucleotides for each sgRNA guide sequence were annealed and phosphorylated using T4 Ligation Buffer and T4 polynucleotide kinase (New England Biolabs) at 37° C. for 30 minutes and then annealed by heating to 95° C. for 5 minutes and cooling to 25° C. at 1.5° C./minute. Using T4 ligation buffer and T4 ligase (New England Biolabs), annealed oligos were ligated into gel purified vectors (Qiagen) at 65° C. for 10 minutes. 2.5 ug of the ligation product were transformed in 30 uL E. coli electrocompetent cells (Lucigen E.cloni 10 G ELITE PLUS, Invitrogen). Subsequently, 500 uL of transformed cells were plated on LB Agar-AmpR (ThermoFisher Scientific) and incubated overnight at 37° C. Three colonies per plate were then picked and inoculated in a mini-prep culture (Qiagen). The product was then digested with BsmBI and XhoI (New England Biolabs) at 37° C. for 1 h and compared to the uncut control on 1% agarose gel. One out of three colonies (10 uL) was then precultured in 3 mL LB Broth-AmpR and shaken at 37° C. for 6 h. Afterwards it was transferred to a 250 mL LB Broth-AmpR flask and incubated overnight at 37° C. Each culture was then inoculated into a maxiprep culture (Qiagen).
Also, CRBN, VHL, TCEBJ, TCEB2, UBE2R2 and FBXW2 sgRNA are selected from Brunello library and cloned using pLVX-hyg-sgRNA1 Vector system (Takara Bio USA, CA) according to the manufacturer's manual. b(takarabio.com/assets/documents/User %20Manual/Lenti-X_CRISPR-Cas9_System_User_Manual_121316.pdf)
ii. Lentiviral transductions with constructs for individual sgRNAs: 500×10^3 to 1×10^6 MM.1S Cas9 cells were plated in 50 uL of complete RPMI1640 medium per well in a 24-well plate, and additional 100 uL of complete RPMI1640 medium were added to cover the well completely. Cells were incubated in cell medium containing polybrene (5 to 8 μg/mL; Santa Cruz Biotechnology), and viral prep. 24 hours after addition of viral preps, media were changed and, after another 48 h, puromycin selection (1 to 2 ug/ml per well) was started. After 7 days of puromycin selection, transduced MM.1S Cas9+ cells were collected and expanded in T75 flasks.
iii. […] In the case of Thal-SNS-032 or ARV771, cells are plated 384-well plate and treated each concentration described at figure and viability assays were performed at 72 hrs.

Row | Compound | sgRNA enrichment in resistant cells, long-term screen (MM.1S-Cas9+ cells) | activity against cells with sgRNAs against CRBN (MM.1S Cas9+ cells; MM.1S cells) | response of cells with sgRNAs against COPS7B or COPS8 (MM.1S Cas9+ cells; compared to parental MM.1S cells) | sgRNA enrichment, extended degronimid treatment (MM.1S-Cas9+ cells) | Thal-SNS-032 responsiveness after individual sgRNAs (MM.1S Cas9+ cells; sgRNAs for COPS7B, COPS2, DDB1 or COPS8) | response to dBET6 after individual sgRNAs (MM.1S Cas9+ cells; sgRNAs for COPS7B, COPS8 or CRBN)
1 | Cc1ncsc1-c1ccc([C@H](C)NC(=O)[C@@H]2C[C@@H](O)CN2C(=O)[C@@H](NC(=O)COCCCOCCNC(=O)C[C@@H]2N=C(c3ccc(Cl)cc3)c3c(sc(C)c3C)-n3c(C)nnc32)C(C)(C)C)cc1 [ARV-771] | enrichment of sgRNAs for CUL2, VHL itself | no significant changes in ARV771 activity | decreased response | – | – | –
2 | CC(C)(C)c1cnc(CSc2cnc(NC(=O)C3CCN(CC(=O)NCCOCCOCCOCCNc4cccc5c4C(=O)N(C4CCC(=O)NC4=O)C5=O)CC3)s2)o1 (stereo not drawn) [Thal-SNS-032] | pronounced enrichment of sgRNAs for CRBN itself, and COP9 signalosome complex genes | – | – | CRBN is the only gene which exhibits enrichment of its sgRNAs; also recorded: further enrichment of MM cells containing sgRNA against CRBN | decrease the Thal-SNS-032 responsiveness | –
3 | Cc1sc2c(c1C)C(c1ccc(Cl)cc1)=N[C@@H](CC(=O)NCCCCCCCCNC(=O)COc1cccc3c1C(=O)N(C1CCC(=O)NC1=O)C3=O)c1nnc(C)n1-2 (stereo partly drawn) [dBET6] | significant enrichment of sgRNAs targeting CRBN itself, as well as other components or regulators of the cullin-RING ligase (CRL) complex | – | – | CRBN is the only gene which exhibits enrichment of its sgRNAs; also recorded: further enrichment of MM cells containing sgRNA against CRBN | – | decreases the response of MM.1S cells to dBET6
